Laboratory results reported in patent US20220280602A1, “ANTICANCER AGENT AND METHOD FOR PREPARATION OF POROUS SILICA PARTICLE” (LEMONEX INC., priority 2019, published 2022).

Key:
MCF-7 cells = assay: Assessment of cytotoxicity by MTT assay; format: cell-based; conditions: 1 day treatment
Procedure: MCF-7 cells were seeded at 10,000 cells/well in 96-well cell culture plates. After 1 day, different concentrations of each particle (4 to 500 μg/mL) were treated with a serum-containing medium in each well for 1 day. Thereafter, the culture was performed for 4 hours while replacing the above medium with a serum-free medium containing 10 μl of MTT assay kit, and the supernatant was aspirated. DMSO was added to each well to dissolve formazan, and reacted for 1 hour. The absorbance was measured at a wavelength of 570 nm, and the cell viability was calculated as a relative value to that of the untreated group.

[1] = system: MCF-7 cells expressing LC3-GFP; assay: Measurement of the number of GFP-LC3 puncta (autophagy induction); format: cell-based; conditions: MCF-7 expressing LC3-GFP, 6 hours, serum-free medium
Procedure: Using lipofectamine 2000, LC3-GFP plasmid was transfected into MCF-7 cells. Transfected MCF-7 was selected with 800 μg/mL of G418 for 3 months. […] 100,000 MCF-7 cells expressing LC3-GFP were seeded.
40 μg of dye-labeled particles and 4 μg of bec1 peptide were mixed, and the cells were treated for 6 hours in a serum-free medium. Cells were fixed with 4% PFA, and nuclei were stained with DAPI. Images were obtained with a Delta-vision microscope, and the number of GFP-LC3 puncta was measured in 100 cells for each group.

## CGGTNVFNATFHIWHSGQFGT (listed as Homo sapiens) [Bec1 peptide]
MCF-7 cells
  Cell viability compared to non-treated group: not significantly varied
[1]
  Amount of GFP puncta: very little amount
